Laboratory results: patent US11986531B2, “Compounds and methods for the targeted degradation of rapidly accelerated fibrosarcoma polypeptides” (ARVINAS OPERATIONS, INC., priority 2016, dated 2024)

Test system: BRAF mutants (Class 1, Class 2 and Class 3)
Test: targeted degradation of BRAF mutants (summary of FIGS. 4-10)
Type: cell-based
Conditions: BRAF mutants sensitive (Class 1) and insensitive (Class 2 and Class 3) to vemurafenib

CCCS(=O)(=O)Nc1ccc(F)c(C(=O)c2c[nH]c3ncc(-c4ccc(N5CCN(CC(=O)N[C@H](C(=O)N6C[C@H](O)C[C@H]6C(=O)NCc6ccc(-c7scnc7C)cc6)C(C)(C)C)CC5)cc4)cc23)c1F [compound 512, (2S,4R)-1-((S)-2-(2-(4-(4-(3-(2,6-difluoro-3-(propylsulfonamido)benzoyl)-1H-pyrrolo[2,3-b]pyridin-5-yl)phenyl)piperazin-1-yl)acetamido)-3,3-dimethylbutanoyl)-4-hydroxy-N-(4-(4-methylthiazol-5-yl)benzyl)pyrrolidine-2-carboxamide]
targeted degradation of BRAF mutants: induces targeted degradation of BRAF mutants sensitive (Class 1) and insensitive (Class 2 and Class 3) to vemurafenib
